Assay results published in patent US12577256B2, “Aryl receptor modulators and methods of making and using the same” (Nogra Pharma Limited, priority 2014, dated 2026).

Assays:
AhR = target: T1, AhR (Homo sapiens, UniProt P35869); details: cited from earlier work
T1 sequence (P35869 11-848): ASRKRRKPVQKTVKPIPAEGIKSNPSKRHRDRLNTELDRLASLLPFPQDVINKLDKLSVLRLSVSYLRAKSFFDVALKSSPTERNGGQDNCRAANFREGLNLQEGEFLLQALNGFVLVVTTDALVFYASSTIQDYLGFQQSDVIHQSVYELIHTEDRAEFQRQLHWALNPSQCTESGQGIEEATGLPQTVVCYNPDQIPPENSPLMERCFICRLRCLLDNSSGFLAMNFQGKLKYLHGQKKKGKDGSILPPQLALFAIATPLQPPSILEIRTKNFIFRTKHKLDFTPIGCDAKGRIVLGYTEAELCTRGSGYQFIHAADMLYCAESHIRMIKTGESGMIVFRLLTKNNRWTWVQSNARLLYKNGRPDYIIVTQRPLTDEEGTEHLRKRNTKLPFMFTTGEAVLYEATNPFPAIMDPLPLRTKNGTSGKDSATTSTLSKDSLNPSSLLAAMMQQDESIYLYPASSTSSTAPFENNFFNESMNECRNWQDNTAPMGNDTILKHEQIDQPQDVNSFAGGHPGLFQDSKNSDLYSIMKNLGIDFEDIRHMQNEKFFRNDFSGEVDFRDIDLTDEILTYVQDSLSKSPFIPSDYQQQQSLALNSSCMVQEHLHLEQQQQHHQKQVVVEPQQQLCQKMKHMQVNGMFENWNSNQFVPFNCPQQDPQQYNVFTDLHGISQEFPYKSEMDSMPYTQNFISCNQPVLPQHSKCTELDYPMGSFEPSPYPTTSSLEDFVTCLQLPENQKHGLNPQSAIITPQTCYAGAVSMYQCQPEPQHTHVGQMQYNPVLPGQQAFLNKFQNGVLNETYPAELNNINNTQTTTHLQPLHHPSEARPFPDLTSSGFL

IFN-γ = IFN-γ RNA expression in anti-CD3/anti-CD28 stimulated PBMC (real-time PCR); format: cell-based, human; details: anti-CD3/anti-CD28, 100, 200 or 400 nM compound, 24 hours, RNA (FIG. 24)
Procedure: (§1) Peripheral blood mononuclear cells (PBMC), isolated from 3 healthy subjects, were isolated by density gradient centrifugation (Lymphoprep; Nycomed Pharma) from 5 mL heparinized blood samples. PBMC were resuspended in RPMI 1640 supplemented with 10% fetal calf serum at a concentration of 1×10^6 cells/mL, cultured in 24-well culture plates (Falcon Plastic) and stimulated with medium alone or anti-CD3/anti-CD28 (Miltenyi Biotec) antibodies with or without 100, 200, or 400 nM of AhR binding compounds (02, 04, 13, 15, 17, or 24), dimethyl sulfoxide or 6-formylindolo[3,2-b]cathazole (Ficz, 200 nM). Total RNA was extracted from cells cultured for 24 hours. For RNA preparation, cells were lysed in 1 mL of guanidium thiocyanate buffer and subjected to phenol/chloroform extraction using TRizol reagent (Invitrigen). The sample obtained was quantitated by absothance at 260 nm and complementary DNA (cDNA) was synthetized from […] of total RNA. cDNA was amplified using the following conditions: denaturation for 1 minute at 95° C.; annealing for 30 seconds at 58° C. for IFN-γ, and 60° C. for f3-actin; and followed by 30 seconds of extension at 72° C. […] IL-22 was evaluated using commercially available TaqMan probes (Applied Biosystems). β-actin (forward (SEQ ID NO. 3) 5′-[…]-3′, reverse (SEQ ID NO.4) 5′-[…]-3′) was used as a housekeeping gene. Gene expression was calculated using the AACt algorithm.

IL-22 = IL-22 RNA expression in anti-CD3/anti-CD28 stimulated PBMC (real-time PCR); format: cell-based, human; details: anti-CD3/anti-CD28, 100, 200 or 400 nM compound, 24 hours, RNA (FIG. 24)
Procedure: as §1

[1] = cited from earlier work

Row | SMILES | activation of the AhR (AhR) | production of IFN-γ (IFN-γ) | production of IL-22 (IL-22) | anti-inflammatory properties in vivo [1]
1 | Cc1oncc1C(=O)Nc1ccc(C(F)(F)F)cc1 [Leflunomide] | activates |  |  | 
2 | COc1cc(Nc2nc3ccccc3[nH]2)cc(OC)c1OC [compound 17, N (3,4,5-trimethoxyphenyl)-1H-benzo[d]imidazol-2-amine] |  | decreasing | strongly increases | 
3 | C=CCn1nc(-c2ccc(OC)c(OC)c2)c2cccc(C(F)(F)F)c21 [SGA 360] |  |  |  | exhibits anti-inflammatory properties in vivo
4 | COc1ccc(Cc2nc3ccc(C(F)(F)F)cc3s2)cc1OC [compound 15, 2-(3,4-dimethoxybenzyl)-6-(trifluoromethyl)benzo[d]thiazole] |  | decreasing | strongly increases | 
